Laboratory results published in the supplement of paper PMC10307832.

Assays:
Experiment in all cases: relative viability (nuclei count vs DMSO), 5 days (fraction); higher = more cells survive
R406 + Lapatinib = compound: COc1cc(Nc2ncc(F)c(Nc3ccc4c(n3)NC(=O)C(C)(C)O4)n2)cc(OC)c1OC [R406] + CS(=O)(=O)CCNCc1ccc(-c2ccc3ncnc(Nc4ccc(OCc5cccc(F)c5)c(Cl)c4)c3c2)o1 [Lapatinib] (partner 2 µM)
Outline: (§1)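 One day after seeding in 1536-well plates, lung cancer cell lines were dosed by pin tool. Dosing was either single-drug or a fixed anchor-drug dose plus five library-drug doses (not always all listed) in √10 steps. After 5 days, nuclei were stained in one fix-and-stain step and counted on 4× images, and relative viability is the nuclei count of treated wells over that of vehicle wells, given as the median of duplicate plates.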

R406 + Olaparib = compound: COc1cc(Nc2ncc(F)c(Nc3ccc4c(n3)NC(=O)C(C)(C)O4)n2)cc(OC)c1OC [R406] + O=C(c1cc(Cc2n[nH]c(=O)c3ccccc23)ccc1F)N1CCN(C(=O)C2CC2)CC1 [Olaparib] (partner 8 µM)
Outline: as §1

Daporinad + Tozasertib = compound: O=C(/C=C/c1cccnc1)NCCCCC1CCN(C(=O)c2ccccc2)CC1 [Daporinad] + Cc1cc(Nc2cc(N3CCN(C)CC3)nc(Sc3ccc(NC(=O)C4CC4)cc3)n2)n[nH]1 [Tozasertib] (partner 0.1 µM)
Outline: as §1

Daporinad + Decitabine = compound: O=C(/C=C/c1cccnc1)NCCCCC1CCN(C(=O)c2ccccc2)CC1 [Daporinad] + Nc1ncn([C@H]2C[C@H](O)[C@@H](CO)O2)c(=O)n1 [Decitabine] (partner 2 µM)
Outline: as §1

Cell Line | relative viability (R406 + Lapatinib; first compound 0.08 µM) | relative viability (R406 + Lapatinib; first compound 0.253 µM) | relative viability (R406 + Lapatinib; first compound 0.8 µM) | relative viability (R406 + Lapatinib; first compound 2.53 µM) | relative viability (R406 + Lapatinib; first compound 8 µM) | relative viability (R406 + Olaparib; first compound 0.08 µM) | relative viability (R406 + Olaparib; first compound 0.253 µM) | relative viability (R406 + Olaparib; first compound 0.8 µM) | relative viability (R406 + Olaparib; first compound 2.53 µM) | relative viability (R406 + Olaparib; first compound 8 µM) | relative viability (Daporinad + Tozasertib; first compound 0.0005 µM) | relative viability (Daporinad + Tozasertib; first compound 0.001581 µM) | relative viability (Daporinad + Tozasertib; first compound 0.005 µM) | relative viability (Daporinad + Tozasertib; first compound 0.01581 µM) | relative viability (Daporinad + Decitabine; first compound 0.0005 µM) | relative viability (Daporinad + Decitabine; first compound 0.001581 µM) | relative viability (Daporinad + Decitabine; first compound 0.005 µM) | relative viability (Daporinad + Decitabine; first compound 0.01581 µM)
NCI-H1793 | 0.823 | 0.692 | 0.641 | 0.144 | 0.207 | 0.781 | 0.794 | 0.946 | 0.356 | 0.144 | 0.327 | 0.326 | 0.34 | 0.553 | 0.45 | 0.496 | 0.489 | 0.564
NCI-H1915 | 0.991 | 1.09 | 1.03 | 0.806 | 0.778 | 0.286 | 0.267 | 0.263 | 0.237 | 0.237 | 0.476 | 0.401 | 0.485 | 0.494 | 0.25 | 0.283 | 0.271 | 0.257
NCI-H1944 | 0.756 | 0.862 | 0.855 | 0.559 | 0.614 | 0.35 | 0.382 | 0.38 | 0.361 | 0.328 | 0.273 | 0.252 | 0.261 | 0.286 | 0.44 | 0.406 | 0.497 | 0.411
NCI-H1975 | 0.779 | 1.01 | 1.14 | 0.221 | 0.169 | 0.706 | 0.862 | 0.783 | 0.311 | 0.204 | 0.789 | 0.742 | 0.661 | 0.692 | 0.444 | 0.338 | 0.382 | 0.373
NCI-H1993 | 0.882 | 0.964 | 0.829 | 0.43 | 0.646 | 1.14 | 1.02 | 1.07 | 0.992 | 0.918 | 0.62 | 0.576 | 0.633 | 0.656 | 0.576 | 0.629 | 0.602 | 0.639
NCI-H2009 | 0.93 | 1.19 | 1.22 | 0.0976 | 0.261 | 0.687 | 0.706 | 0.844 | 0.489 | 0.546 | 0.76 | 0.706 | 0.724 | 0.555 | 0.356 | 0.395 | 0.381 | 0.372
NCI-H2023 | 0.968 | 0.976 | 1.05 | 0.0633 | 0.189 | 0.437 | 0.49 | 0.474 | 0.4 | 0.163 | 0.438 | 0.334 | 0.503 | 0.371 | 0.208 | 0.247 | 0.247 | 0.232
NCI-H2085 | 0.783 | 0.851 | 0.894 | 0.52 | 0.591 | 0.79 | 0.823 | 0.788 | 0.738 | 0.458 | 0.805 | 0.846 | 0.977 | 0.831 | 0.486 |  | 0.59 | 0.573
NCI-H2087 | 0.826 | 1.26 | 1.36 | 0.254 | 0.966 | 0.558 | 0.581 | 0.739 | 0.488 | 0.32 | 0.262 | 0.229 | 0.339 | 0.221 | 0.264 | 0.317 | 0.329 | 0.277
NCI-H2126 | 0.763 | 0.798 | 0.801 | 0.772 | 0.737 | 0.933 | 0.943 | 0.933 | 0.855 | 0.557 | 0.919 | 0.888 | 0.875 | 0.93 | 0.618 | 0.524 | 0.638 | 0.584
NCI-H2170 | 0.253 | 0.25 | 0.247 | 0.272 | 0.258 | 0.63 | 0.573 | 0.648 | 0.44 | 0.488 | 0.694 | 0.742 | 0.668 | 0.849 | 0.491 | 0.446 | 0.444 | 0.439
NCI-H2347 | 1.01 | 0.968 | 0.958 | 0.905 | 0.801 | 0.556 | 0.583 | 0.604 | 0.531 | 0.47 | 0.597 | 0.636 | 0.504 | 0.596 | 0.457 | 0.721 | 0.619 | 0.578
NCI-H2405 | 0.98 | 1.14 | 1.13 | 0.269 | 0.234 | 0.857 | 0.879 | 0.879 | 0.748 | 0.306 | 0.82 | 0.783 | 0.954 | 0.888 | 0.796 | 0.807 | 0.751 | 0.379
NCI-H3122 | 1.01 | 1.06 | 0.981 | 0.969 | 0.934 | 0.637 | 0.739 | 0.69 | 0.566 | 0.625 | 0.376 | 0.403 | 0.421 | 0.405 | 0.308 | 0.417 | 0.392 | 0.321
PC-3 [JPC-3] | 0.457 | 0.501 | 0.503 | 0.406 | 0.418 | 1.15 | 1.3 | 1.13 | 0.838 | 0.452 | 0.864 | 0.896 | 0.938 | 0.952 | 0.84 | 0.781 | 0.91 | 0.907
PC-14 | 0.302 | 0.442 | 0.382 | 0.3 | 0.294 | 0.271 | 0.257 | 0.225 | 0.291 | 0.0748 | 0.688 | 0.633 | 0.606 | 0.709 | 0.189 | 0.199 | 0.23 | 0.144
RERF-LC-KJ | 0.682 | 0.876 | 1.01 | 0.761 | 0.794 | 1.05 | 0.947 | 0.908 | 0.756 | 0.585 | 0.559 | 0.45 | 0.562 | 0.517 | 0.565 | 0.697 | 0.758 | 0.827
